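The compound was tested at five concentrations on cells cultured in 96-well plates, with a 48-hour exposure period. Abbreviation: GI50, concentration required for 50% inhibition of growth.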 Active and inactive are the calls of the source. No stated cut-off is given here; in the data, active = GI50 up to about 1.1 µM and inactive = higher.

We go through 13 compounds from ChEMBL document CHEMBL1201862, “PubChem BioAssay data set” (2004).

Some test systems named below: SW-620; SN12C; UO-31; DU-145; Hs-578T; MDA-N; MOLT-4; LOX IMVI; SNB-75; NCI-H522; UACC-257; HCT-15; RXF 393; NCI-H23; ACHN; RPMI-8226; Malme-3M; EKVX; SNB-78; DMS-114.
Test in all cases: NCI-60 cell line screen, 48 h

Consider `Cc1ccc(S(=O)(=O)NCCSS(=O)(=O)c2ccc(C)cc2)cc1`, for which the GI50 in the experiment on SW-620 is 19.5 µM (inactive); in the experiment with SN12C, 29.7 µM (inactive); with UO-31 it was 28 µM (inactive); in the experiment on DU-145, 42.6 µM (inactive); in the experiment on Hs-578T, 96.4 µM (inactive); with MDA-N, 23.1 µM (inactive). Besides, the GI50 in the experiment on MOLT-4 was 26.8 µM (inactive); in the experiment with LOX IMVI, 33.4 µM (inactive); in the experiment on SNB-75, 30.4 µM (inactive); in the experiment with NCI-H522 it was 18.2 µM (inactive); in the experiment on UACC-257, 64.1 µM (inactive); with HCT-15, 18.7 µM. Moreover, the GI50 in the experiment on RXF 393 is 33.8 µM (inactive); in the experiment on NCI-H23 it was 57.4 µM (inactive); in the experiment with ACHN it was 32.8 µM (inactive).

As for `O=C1CCCC/C1=C1/SC(=N/c2ccccc2)/C(=N\c2ccccc2)N1c1ccccc1`, the GI50 in the experiment with SN12C is > 100 µM (inactive); with UO-31 it was 91.4 µM (inactive); in the experiment with DU-145, 56.8 µM (inactive); in the experiment with RPMI-8226, > 100 µM (inactive); with Hs-578T, 78.3 µM (inactive); in the experiment with MDA-N, > 100 µM (inactive). Further, the GI50 is 34.2 µM (inactive) in the experiment with MOLT-4; > 100 µM (inactive) in the experiment on Malme-3M; 69.5 µM (inactive) with SNB-75; > 100 µM (inactive) in the experiment on NCI-H522; above 100 µM in the experiment on HCT-15; 0.0378 µM (active) with RXF 393. In addition, the GI50 in the experiment on NCI-H23 is > 100 µM (inactive).

In the case of `O=c1c(-c2ccccc2)c(SCCN2CCOCC2)n(-c2ccccc2)c(=S)n1-c1ccccc1`, the GI50 is > 100 µM (inactive) in the experiment with SW-620; > 100 µM (inactive) with EKVX; > 100 µM (inactive) in the experiment with DU-145; > 100 µM (inactive) with RPMI-8226; 62.2 µM (inactive) in the experiment with Hs-578T; > 100 µM (inactive) in the experiment with MOLT-4. Moreover, the GI50 with LOX IMVI was > 100 µM (inactive); in the experiment on Malme-3M, > 100 µM (inactive); in the experiment on SNB-75 it was 26.4 µM (inactive); in the experiment with NCI-H522, 51.5 µM (inactive); in the experiment with UACC-257 it was > 100 µM (inactive); in the experiment on HCT-15 it was above 100 µM. Also, the GI50 with RXF 393 was 46.9 µM (inactive); in the experiment with NCI-H23, > 100 µM (inactive); with ACHN, > 100 µM (inactive).

For `CCNC(=S)NNC(=O)c1nsc2ccccc12`, the GI50 is > 100 µM (inactive) in the experiment on SW-620; 18.7 µM (inactive) in the experiment on EKVX; 55.1 µM (inactive) in the experiment on SN12C; 52.8 µM (inactive) in the experiment with UO-31; 51.8 µM (inactive) in the experiment with RPMI-8226; 50.9 µM (inactive) in the experiment with MOLT-4. For the same compound, the GI50 in the experiment on LOX IMVI was 64.9 µM (inactive); with SNB-75 it was 34.5 µM (inactive); in the experiment with SNB-78, > 100 µM (inactive); with UACC-257 it was > 100 µM (inactive); in the experiment with HCT-15, 38.2 µM; with RXF 393, 44.6 µM (inactive). Besides, the results for the GI50 in the experiment with NCI-H23, in the experiment on ACHN and in the experiment on DMS-114 were > 100 µM (inactive), > 100 µM (inactive) and 95.5 µM (inactive), respectively.

On to `O=C(Nc1ccc([N+](=O)[O-])cc1)C(=O)C(C(=O)c1ccccc1F)C1OC(=O)c2ccccc21` (stereo not drawn), for which the GI50 with SW-620 is 49 µM (inactive); in the experiment with EKVX, 40.4 µM (inactive); in the experiment with SN12C, 30.8 µM (inactive); in the experiment with UO-31, 38.1 µM (inactive); in the experiment with RPMI-8226, 18.2 µM (inactive); with MOLT-4 it was 26 µM (inactive). For the same compound, the GI50 was 17.7 µM (inactive) in the experiment with LOX IMVI; 30.2 µM (inactive) in the experiment with SNB-75; 14.7 µM (inactive) in the experiment on NCI-H522; 5.65 µM (inactive) with SNB-78; 86.5 µM (inactive) in the experiment on UACC-257; 29.9 µM in the experiment with HCT-15. The GI50 in the experiment with RXF 393 was 50.9 µM (inactive); in the experiment on NCI-H23, 81.1 µM (inactive); with ACHN, 58.5 µM (inactive); in the experiment on DMS-114, 29 µM (inactive).

As for `Nc1nc2ccc3ccccc3c2[nH]1`, the GI50 is > 10 µM (inactive) in the experiment on SW-620; > 10 µM (inactive) with EKVX; > 10 µM (inactive) with SN12C; 5.66 µM (inactive) in the experiment with UO-31; > 10 µM (inactive) with DU-145; > 10 µM (inactive) in the experiment with RPMI-8226. Moreover, the GI50 in the experiment with Hs-578T, in the experiment on MDA-N, in the experiment on MOLT-4, in the experiment on LOX IMVI, with Malme-3M and in the experiment with SNB-75 was > 10 µM (inactive) in each case. For the same compound, the GI50 in the experiment on NCI-H522 was > 10 µM (inactive); with HCT-15, above 10 µM; with RXF 393, > 10 µM (inactive); in the experiment with NCI-H23, > 10 µM (inactive); in the experiment with ACHN, > 10 µM (inactive).

`CN(C)CCOc1cc2c(c3ccccc13)-c1ccccc1C2O` (stereo not drawn): the GI50 in the experiment on SW-620 is 12.4 µM (inactive); with EKVX, 14.8 µM (inactive); with SN12C, 13.4 µM (inactive); with UO-31, 12.5 µM (inactive); in the experiment on RPMI-8226, 12.6 µM (inactive); with MOLT-4, 3.33 µM (inactive). The GI50 was 10.2 µM (inactive) in the experiment with LOX IMVI; 18.2 µM (inactive) with Malme-3M; 10.3 µM (inactive) in the experiment with SNB-75; 16 µM (inactive) with NCI-H522; 15.9 µM (inactive) in the experiment with SNB-78; 15.5 µM (inactive) with UACC-257. Further, the GI50 is 12.4 µM in the experiment on HCT-15, 1.47 µM (inactive) with RXF 393, 16.9 µM (inactive) in the experiment on NCI-H23 and 11.7 µM (inactive) in the experiment with DMS-114.

On to `CS(C)(=O)=Nn1c(=O)n2n(c1=O)C1c3ccccc3C2c2ccccc21`, for which the GI50 with SW-620, with EKVX, in the experiment with UO-31, with DU-145, in the experiment on RPMI-8226 and in the experiment on MDA-N was > 100 µM (inactive) each time. Further, the GI50 in the experiment with MOLT-4 is > 100 µM (inactive); in the experiment with LOX IMVI, > 100 µM (inactive); in the experiment with Malme-3M, > 100 µM (inactive); in the experiment with NCI-H522 it was > 100 µM (inactive); with UACC-257, > 100 µM (inactive); in the experiment on HCT-15, above 100 µM. The GI50 in the experiment with RXF 393, in the experiment with NCI-H23 and with ACHN was > 100 µM (inactive) in each case.

For the compound `C1CSCCSCCSCCSC1`, the GI50 in the experiment with SW-620, in the experiment on EKVX, with SN12C, in the experiment with UO-31, in the experiment with DU-145 and with RPMI-8226 was > 100 µM (inactive) throughout. Moreover, the GI50 in the experiment on Hs-578T, in the experiment with MDA-N, in the experiment on MOLT-4, with LOX IMVI, with SNB-75 and in the experiment on NCI-H522 was > 100 µM (inactive) throughout. Also, the GI50 in the experiment with UACC-257 is > 100 µM (inactive); in the experiment with HCT-15, above 100 µM; in the experiment on RXF 393, > 100 µM (inactive); with NCI-H23 it was > 100 µM (inactive); in the experiment with ACHN, > 100 µM (inactive).

As to `O=C(NNC(=S)Nc1ccccc1)c1nsc2ccccc12`, the GI50 in the experiment with SW-620 was 40.6 µM (inactive); in the experiment on EKVX it was 25.2 µM (inactive); in the experiment on SN12C, 31.5 µM (inactive); in the experiment on UO-31 it was 25.5 µM (inactive); in the experiment on RPMI-8226, 16 µM (inactive); in the experiment with MOLT-4, 20.7 µM (inactive). The GI50 is 23.7 µM (inactive) with LOX IMVI; 25.1 µM (inactive) in the experiment with SNB-75; 47.9 µM (inactive) in the experiment with SNB-78; 33.3 µM (inactive) in the experiment with UACC-257; 10.7 µM with HCT-15; 40.7 µM (inactive) with RXF 393. Besides, the GI50 is 36.6 µM (inactive) in the experiment with NCI-H23, 39.7 µM (inactive) in the experiment with ACHN and 24.9 µM (inactive) in the experiment with DMS-114.

On to `CSC1SCC2C(=O)N(C)C(C(C)C)C(=O)OCC(NC(=O)c3cnc4ccccc4n3)C(=O)NC(C)C(=O)N(C)C1C(=O)N(C)C(C(C)C)C(=O)OCC(NC(=O)c1cnc3ccccc3n1)C(=O)NC(C)C(=O)N2C` (stereo not drawn), for which the GI50 was 0.0075 µM (active) in the experiment on SW-620; 0.0075 µM (active) in the experiment with EKVX; 0.0075 µM (active) in the experiment with SN12C; 0.0083 µM (active) with UO-31; 0.0031 µM (active) with DU-145; 0.0075 µM (active) in the experiment with RPMI-8226. In addition, the GI50 is 0.000374 µM (active) in the experiment on Hs-578T; 0.0075 µM (active) with MOLT-4; 0.0075 µM (active) in the experiment with SNB-78; 0.0101 µM with HCT-15; 0.00895 µM (active) with RXF 393; 0.0104 µM (active) in the experiment on DMS-114.

Consider `CN(C)C(=O)Oc1c(Br)cc(Br)cc1C(=O)OCc1ccccc1`, for which the GI50 in the experiment with SW-620 was 41.1 µM (inactive); in the experiment on EKVX, 35.6 µM (inactive); with SN12C it was 20.8 µM (inactive); in the experiment on UO-31 it was 20.3 µM (inactive); in the experiment on RPMI-8226, 19.5 µM (inactive); in the experiment on MOLT-4, 17.5 µM (inactive). For the same compound, the GI50 with LOX IMVI is 22.8 µM (inactive); in the experiment on Malme-3M, 24.9 µM (inactive); in the experiment with SNB-75, 32 µM (inactive); in the experiment on NCI-H522, 34.8 µM (inactive); in the experiment with SNB-78 it was 33.1 µM (inactive); in the experiment on UACC-257, 26.5 µM (inactive). Besides, the GI50 with HCT-15 was 26.2 µM; in the experiment with RXF 393, 38.4 µM (inactive); with NCI-H23 it was 30.6 µM (inactive); in the experiment with DMS-114, 19.1 µM (inactive).

On to `O=C(CCCn1cnc([N+](=O)[O-])n1)NCCn1ccnc1[N+](=O)[O-]`, for which the GI50 in the experiment on SW-620, with EKVX, with UO-31, in the experiment on DU-145, with RPMI-8226 and in the experiment with Hs-578T was > 100 µM (inactive) throughout. Besides, the GI50 in the experiment on MDA-N, in the experiment on MOLT-4, with LOX IMVI, with SNB-75, in the experiment with NCI-H522 and in the experiment with UACC-257 was > 100 µM (inactive) each time. Also, the GI50 is above 100 µM in the experiment with HCT-15, > 100 µM (inactive) in the experiment with RXF 393, > 100 µM (inactive) in the experiment with NCI-H23 and > 100 µM (inactive) in the experiment with ACHN.
